“And” between values parts separate entries of the source, which are not always exact repeats. Equal entries are not always repeated. Records with an inconclusive call do not appear.
Tested on: nude mice, HT29 intrarenal xenograft, tumor weight T/C
Assay: NCI In Vivo Anticancer Drug Screen. Data for tumor model HT29;CX-1 Human Adenocarcinoma (MER+) (intrarenal inoculation) in NU/NU Swiss (nude) mice
Settings: endpoint: mean tumor weight change, higher = larger tumour
Method in brief: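 Mice with transplanted tumors are dosed with compound while controls get vehicle only. Survival or tumor burden is then assessed per group, and the treated value is expressed relative to control.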

[1] = dose: 12.5 mg/kg/injection, schedule: Q01DX010 (sc), vehicle: saline
[2] = dose: 25.0 mg/kg/injection, schedule: Q01DX010 (sc), vehicle: saline
[3] = dose: 2.0 mg/kg/injection, schedule: Q01DX010 (sc), vehicle: saline
[4] = dose: 200.0 mg/kg/injection, schedule: Q01DX010 (sc), vehicle: saline with Tween-80
[5] = dose: 50.0 mg/kg/injection, schedule: Q04DX004 (sc), vehicle: saline
[6] = dose: 100.0 mg/kg/injection, schedule: Q04DX004 (sc), vehicle: saline
[7] = dose: 300.0 mg/kg/injection, schedule: Q04DX004 (sc), vehicle: saline
[8] = dose: 600.0 mg/kg/injection, schedule: Q04DX004 (sc), vehicle: saline
[9] = dose: 1200.0 mg/kg/injection, schedule: Q04DX004 (sc), vehicle: saline
[10] = dose: 2400.0 mg/kg/injection, schedule: Q04DX004 (sc), vehicle: saline
[11] = dose: 400.0 mg/kg/injection, schedule: Q04DX004 (sc), vehicle: saline with Tween-80
[12] = dose: 800.0 mg/kg/injection, schedule: Q04DX004 (sc), vehicle: saline with Tween-80
[13] = dose: 1600.0 mg/kg/injection, schedule: Q04DX004 (sc), vehicle: saline with Tween-80
[14] = dose: 150.0 mg/kg/injection, schedule: Q04DX004 (sc), vehicle: saline
[15] = dose: 200.0 mg/kg/injection, schedule: Q04DX004 (sc), vehicle: saline

O=S1(=O)C=C(c2ccccc2)C(c2ccccc2)=C1
T/C (dose: 150.0 mg/kg/injection, schedule: Q04DX004 (sc), vehicle: saline with Tween-80): 58 % of control | T/C (dose: 300.0 mg/kg/injection, schedule: Q04DX004 (sc), vehicle: saline with Tween-80): 83 % of control | T/C (dose: 600.0 mg/kg/injection, schedule: Q04DX004 (sc), vehicle: saline with Tween-80): 97 % of control | T/C (dose: 1200.0 mg/kg/injection, schedule: Q04DX004 (sc), vehicle: saline with Tween-80): 85 % of control

C(C#CCN1CCOCC1)#CCN1CCOCC1
T/C (dose: 600.0 mg/kg/injection, schedule: Q04DX004 (sc), vehicle: Klucel (hydroxypropylcellulose) (HPC)): 100 % of control | T/C (dose: 1200.0 mg/kg/injection, schedule: Q04DX004 (sc), vehicle: Klucel (hydroxypropylcellulose) (HPC)): 72 % of control | T/C (dose: 2400.0 mg/kg/injection, schedule: Q04DX004 (sc), vehicle: Klucel (hydroxypropylcellulose) (HPC)): 68 % of control

C1OC1C1CO1 (stereo unspecified)
T/C [1]: 164 % of control | T/C [2]: 168 % of control

Cc1c(N)nc(C(CC(N)=O)NCC(N)C(N)=O)nc1C(=O)NC(C(=O)NC(C)C(O)C(C)C(=O)NC(C(=O)NCCc1nc(-c2nc(C(=O)NCCCNC(C)c3ccccc3)cs2)cs1)C(C)O)C(OC1OC(CO)C(O)C(O)C1OC1OC(CO)C(O)C(OC(N)=O)C1O)c1cnc[nH]1 (stereo unspecified)
T/C [3]: 64 % of control | T/C (dose: 4.0 mg/kg/injection, schedule: Q01DX010 (sc), vehicle: saline): 65 % of control | T/C (dose: 8.0 mg/kg/injection, schedule: Q01DX010 (sc), vehicle: saline): 76 % of control | T/C (dose: 16.0 mg/kg/injection, schedule: Q01DX010 (sc), vehicle: saline): 65 % of control

COc1cc(C[C@H]2c3cc(OC)c(OC)cc3CCN2C)c(Oc2cc3c(cc2OC)-c2c(OC)c(OC)cc4c2[C@H](C3)N(C)CC4)cc1OC
T/C (dose: 100.0 mg/kg/injection, schedule: Q01DX010 (sc), vehicle: saline with Tween-80): 100 % of control | T/C [4]: 45 % of control | T/C (dose: 400.0 mg/kg/injection, schedule: Q01DX010 (sc), vehicle: saline with Tween-80): 67 % of control | T/C (dose: 800.0 mg/kg/injection, schedule: Q01DX010 (sc), vehicle: saline with Tween-80): 63 % of control

CCc1ncnc2cc(OCC3CO3)c(OC)cc12 (stereo unspecified)
T/C (dose: 25.0 mg/kg/injection, schedule: Q04DX004 (sc), vehicle: saline): 69 % of control | T/C [5]: 36 % of control | T/C [6]: 80 % of control

COc1ccc(C(N)=O)cc1N=NN(C)C
T/C (dose: 18.75 mg/kg/injection, schedule: Q04DX004 (sc), vehicle: Klucel (hydroxypropylcellulose) (HPC)): 100 % of control | T/C (dose: 37.5 mg/kg/injection, schedule: Q04DX004 (sc), vehicle: Klucel (hydroxypropylcellulose) (HPC)): 31 % of control and 55 % of control | T/C (dose: 75.0 mg/kg/injection, schedule: Q04DX004 (sc), vehicle: Klucel (hydroxypropylcellulose) (HPC)): 45 % of control and 52 % of control and 70 % of control

C[C@H](N)C(=O)N[C@@H]1[C@H]2C(=C(O)C[C@@H](O)[C@@H]2O)C(=O)O[C@@H]1C
T/C [7]: 107 % of control | T/C [8]: 81 % of control | T/C [9]: 68 % of control | T/C [10]: 92 % of control

CC(Oc1ccccc1-c1ccccc1)C(=O)N(C)C (stereo unspecified)
T/C (dose: 200.0 mg/kg/injection, schedule: Q04DX004 (sc), vehicle: saline with Tween-80): 115 % of control | T/C [11]: 63 % of control | T/C [12]: 89 % of control | T/C [13]: 55 % of control

Cc1ccccc1CN1C2=NCCN2C(=O)C2=C1CCN(S(=O)(=O)c1ccc(Cl)c(S(N)(=O)=O)c1)C2
T/C [14]: 86 % of control | T/C [7]: 168 % of control | T/C [8]: 115 % of control | T/C [9]: 75 % of control

S=P(N1CC1)(N1CC1)N1CC1
T/C (dose: 1.0 mg/kg/injection, schedule: Q01DX010 (sc), vehicle: saline): 34 % of control | T/C [3]: 80 % of control

CC1(C)N=C(N)N=C(N)N1c1ccc(F)c(C(F)(F)F)c1
T/C (dose: 3.12 mg/kg/injection, schedule: Q01DX010 (sc), vehicle: saline): 103 % of control | T/C (dose: 6.25 mg/kg/injection, schedule: Q01DX010 (sc), vehicle: saline): 84 % of control | T/C [1]: 49 % of control | T/C [2]: 124 % of control

O=C1C(O)=C(c2ccccc2)C(=O)C(O)=C1c1ccccc1
T/C (dose: 75.0 mg/kg/injection, schedule: Q04DX004 (sc), vehicle: saline): 95 % of control | T/C [14]: 60 % of control

O=c1[nH]c(=O)n(C2CC(O)C(CO)O2)cc1I (stereo unspecified)
T/C [4]: 91 % of control

NC1=NC(=O)N2CC12 (stereo unspecified)
T/C [5]: 103 % of control | T/C [6]: 85 % of control | T/C [15]: 79 % of control

CC1=C(/C=C/C(C)=C/C=C/C(C)=C/C(=O)O)C(C)(C)CCC1
T/C (dose: 12.5 mg/kg/injection, schedule: Q01DX010 (sc), vehicle: saline with Tween-80): 153 % of control | T/C (dose: 25.0 mg/kg/injection, schedule: Q01DX010 (sc), vehicle: saline with Tween-80): 176 % of control | T/C (dose: 50.0 mg/kg/injection, schedule: Q01DX010 (sc), vehicle: saline with Tween-80): 123 % of control

CC[n+]1c(-c2ccccc2)c2cc(N)ccc2c2ccc(N)cc21
T/C (dose: 15.0 mg/kg/injection, schedule: Q04DX004 (sc), vehicle: saline): 119 % of control | T/C (dose: 30.0 mg/kg/injection, schedule: Q04DX004 (sc), vehicle: saline): 66 % of control | T/C (dose: 60.0 mg/kg/injection, schedule: Q04DX004 (sc), vehicle: saline): 53 % of control

CN(C)[C@@H]1C(=O)C(C(N)=O)=C(O)[C@@]2(O)C(=O)C3=C(O)c4c(O)ccc(Cl)c4[C@@](C)(O)[C@H]3C[C@@H]12
T/C [15]: 62 % of control | T/C (dose: 400.0 mg/kg/injection, schedule: Q04DX004 (sc), vehicle: saline): 87 % of control | T/C (dose: 800.0 mg/kg/injection, schedule: Q04DX004 (sc), vehicle: saline): 82 % of control | T/C (dose: 1600.0 mg/kg/injection, schedule: Q04DX004 (sc), vehicle: saline): 66 % of control

CN(Cc1cnc2nc(N)nc(N)c2n1)c1c(Cl)cc(C(=O)NC(CCC(=O)O)C(=O)O)cc1Cl (stereo unspecified)
T/C (dose: 12.5 mg/kg/injection, schedule: Q01DX010 (sc), vehicle: Klucel (hydroxypropylcellulose) (HPC)): 166 % of control | T/C (dose: 25.0 mg/kg/injection, schedule: Q01DX010 (sc), vehicle: Klucel (hydroxypropylcellulose) (HPC)): 86 % of control

N=c1nc2n(cc1F)[C@@H]1O[C@H](CO)[C@@H](O)[C@@H]1O2
T/C (dose: 300.0 mg/kg/injection, schedule: Q04DX004 (sc), vehicle: suspension in saline): 61 % of control | T/C (dose: 1200.0 mg/kg/injection, schedule: Q04DX004 (sc), vehicle: suspension in saline): 60 % of control

NCC1CCC(C(=O)O)CC1 (stereo unspecified)
T/C [11]: 119 % of control | T/C [12]: 93 % of control | T/C [13]: 112 % of control

Nc1cccc(=O)[nH]1
T/C [7]: 115 % of control | T/C [8]: 96 % of control | T/C [9]: 87 % of control | T/C [10]: 79 % of control

COc1cccc2c1C(=O)c1c(O)c3c(c(O)c1C2=O)CC(O)(/C(C)=N/NC(=O)CCCCC(=O)N/N=C(\C)C1(O)Cc2c(O)c4c(c(O)c2C(OC2CC(N)C(O)C(C)O2)C1)C(=O)c1c(OC)cccc1C4=O)CC3OC1CC(N)C(O)C(C)O1 (stereo unspecified)
T/C (dose: 12.5 mg/kg/injection, schedule: Q04DX004 (sc), vehicle: water): 66 % of control | T/C (dose: 25.0 mg/kg/injection, schedule: Q04DX004 (sc), vehicle: water): 98 % of control | T/C (dose: 50.0 mg/kg/injection, schedule: Q04DX004 (sc), vehicle: water): 104 % of control | T/C (dose: 100.0 mg/kg/injection, schedule: Q04DX004 (sc), vehicle: water): 152 % of control

S=c1[nH]cc2cnccn12
T/C (dose: 450.0 mg/kg/injection, schedule: Q04DX004 (sc), vehicle: saline with Tween-80): 97 % of control | T/C (dose: 900.0 mg/kg/injection, schedule: Q04DX004 (sc), vehicle: saline with Tween-80): 107 % of control | T/C (dose: 1800.0 mg/kg/injection, schedule: Q04DX004 (sc), vehicle: saline with Tween-80): 117 % of control

COc1ccc(S(=O)(=O)N/N=C/C(=O)O)cc1
T/C (dose: 25.0 mg/kg/injection, schedule: Q04DX004 (sc), vehicle: saline with Tween-80): 94 % of control | T/C (dose: 50.0 mg/kg/injection, schedule: Q04DX004 (sc), vehicle: saline with Tween-80): 90 % of control and 102 % of control | T/C (dose: 100.0 mg/kg/injection, schedule: Q04DX004 (sc), vehicle: saline with Tween-80): 59 % of control and 82 % of control

CCCCCC[C@@H](O)C/C=C\CCCCCCCC(=O)OCCO
T/C [7]: 21 % of control | T/C [8]: 155 % of control | T/C [9]: 169 % of control | T/C [10]: 230 % of control

OCCOCC(F)(F)F
T/C [7]: 67 % of control | T/C [8]: 91 % of control | T/C [9]: 100 % of control | T/C [10]: 58 % of control

From PubChem BioAssay AID206 (DTP/NCI, 2004)
